Reference: ChEMBL document CHEMBL1201862, “PubChem BioAssay data set” (2004)
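Following 48 hours of exposure in 96-well plates, responses at five concentrations were used to interpolate endpoints linearly. GI50 marks 50% less growth.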 Activity calls are given as the source filed them. Cut-off read from the data, not from the text of the source: active = GI50 up to about 1.1 µM and inactive = higher.

Experiments:
Assay in all cases: inhibition of tumour cell growth, NCI panel, 48 h
786-0 = tested on: 786-0
A498 = tested on: A498
A549 = tested on: A549
ACHN = tested on: ACHN
BT-549 = tested on: BT-549
CAKI-1 = tested on: CAKI-1
COLO 205 = tested on: COLO 205
DU-145 = tested on: DU-145
EKVX = tested on: EKVX
HCT-116 = tested on: HCT-116
HCT-15 = tested on: HCT-15
HOP-62 = tested on: HOP-62
HOP-92 = tested on: HOP-92
HT-29 = tested on: HT-29
Hs-578T = tested on: Hs-578T
IGROV-1 = tested on: IGROV-1
K562 = tested on: K562
KM12 = tested on: KM12
LOX IMVI = tested on: LOX IMVI
M14 = tested on: M14
MCF7 = tested on: MCF7
MDA-MB-231 = tested on: MDA-MB-231
MDA-MB-435 = tested on: MDA-MB-435
MDA-N = tested on: MDA-N
MOLT-4 = tested on: MOLT-4
Malme-3M = tested on: Malme-3M
NCI-H226 = tested on: NCI-H226
NCI-H23 = tested on: NCI-H23
NCI-H460 = tested on: NCI-H460
NCI-H522 = tested on: NCI-H522
NCI/ADR-RES = tested on: NCI/ADR-RES
OVCAR-3 = tested on: OVCAR-3
OVCAR-4 = tested on: OVCAR-4
OVCAR-5 = tested on: OVCAR-5
OVCAR-8 = tested on: OVCAR-8
PC-3 = tested on: PC-3
RPMI-8226 = tested on: RPMI-8226
RXF 393 = tested on: RXF 393
SF-268 = tested on: SF-268
SF-295 = tested on: SF-295
SF-539 = tested on: SF-539
SK-MEL-28 = tested on: SK-MEL-28
SK-MEL-2 = tested on: SK-MEL-2
SK-MEL-5 = tested on: SK-MEL-5
SK-OV-3 = tested on: SK-OV-3
SN12C = tested on: SN12C
SNB-19 = tested on: SNB-19
SNB-75 = tested on: SNB-75
SR = tested on: SR
SW-620 = tested on: SW-620
T47D = tested on: T47D
TK-10 = tested on: TK-10
U-251 = tested on: U-251
UACC-257 = tested on: UACC-257
UACC-62 = tested on: UACC-62
UO-31 = tested on: UO-31

Q: `c1cc(CNCCN2CCNCC2)ccn1` was tested. Which GI50 (786-0) did it give?
A: > 100 µM (inactive)

Q: And the GI50 (A498)?
A: > 100 µM (inactive)

Q: And the GI50 (A549)?
A: > 100 µM (inactive)

Q: What about the GI50 (ACHN) of the same compound?
A: > 100 µM (inactive)

Q: What about the GI50 (BT-549) of the same compound?
A: > 100 µM (inactive)

Q: And the GI50 (CAKI-1)?
A: > 100 µM (inactive)

Q: And the GI50 (COLO 205)?
A: > 100 µM (inactive)

Q: And the GI50 (DU-145)?
A: > 100 µM (inactive)

Q: What about the GI50 (EKVX) of the same compound?
A: > 100 µM (inactive)

Q: And the GI50 (HCT-116)?
A: > 100 µM (inactive)

Q: And the GI50 (HCT-15)?
A: > 100 µM

Q: And the GI50 (HOP-62)?
A: > 100 µM (inactive)

Q: And the GI50 (HOP-92)?
A: > 100 µM (inactive)

Q: What about the GI50 (HT-29) of the same compound?
A: > 100 µM (inactive)

Q: And the GI50 (Hs-578T)?
A: > 100 µM (inactive)

Q: And the GI50 (IGROV-1)?
A: > 100 µM (inactive)

Q: What about the GI50 (K562) of the same compound?
A: > 100 µM (inactive)

Q: And the GI50 (KM12)?
A: > 100 µM (inactive)

Q: And the GI50 (LOX IMVI)?
A: > 100 µM (inactive)

Q: What about the GI50 (M14) of the same compound?
A: > 100 µM (inactive)

Q: And the GI50 (MCF7)?
A: > 100 µM (inactive)

Q: And the GI50 (MDA-MB-231)?
A: > 100 µM (inactive)

Q: And the GI50 (MDA-MB-435)?
A: > 100 µM (inactive)

Q: And the GI50 (MDA-N)?
A: > 100 µM (inactive)

Q: And the GI50 (MOLT-4)?
A: > 100 µM (inactive)

Q: What about the GI50 (Malme-3M) of the same compound?
A: > 100 µM (inactive)

Q: What about the GI50 (NCI-H226) of the same compound?
A: > 100 µM (inactive)

Q: What about the GI50 (NCI-H23) of the same compound?
A: > 100 µM (inactive)

Q: What about the GI50 (NCI-H460) of the same compound?
A: > 100 µM (inactive)

Q: What about the GI50 (NCI-H522) of the same compound?
A: > 100 µM (inactive)

Q: What about the GI50 (NCI/ADR-RES) of the same compound?
A: > 100 µM (inactive)

Q: What about the GI50 (OVCAR-3) of the same compound?
A: > 100 µM (inactive)

Q: And the GI50 (OVCAR-4)?
A: > 100 µM (inactive)

Q: And the GI50 (OVCAR-5)?
A: > 100 µM (inactive)

Q: And the GI50 (OVCAR-8)?
A: > 100 µM (inactive)

Q: What about the GI50 (PC-3) of the same compound?
A: > 100 µM (inactive)

Q: And the GI50 (RPMI-8226)?
A: > 100 µM (inactive)

Q: What about the GI50 (RXF 393) of the same compound?
A: > 100 µM (inactive)

Q: What about the GI50 (SF-268) of the same compound?
A: > 100 µM (inactive)

Q: And the GI50 (SF-295)?
A: > 100 µM (inactive)

Q: And the GI50 (SF-539)?
A: > 100 µM (inactive)

Q: And the GI50 (SK-MEL-28)?
A: > 100 µM (inactive)

Q: And the GI50 (SK-MEL-2)?
A: > 100 µM (inactive)

Q: What about the GI50 (SK-MEL-5) of the same compound?
A: > 100 µM (inactive)

Q: What about the GI50 (SK-OV-3) of the same compound?
A: > 100 µM (inactive)

Q: What about the GI50 (SN12C) of the same compound?
A: > 100 µM (inactive)

Q: What about the GI50 (SNB-19) of the same compound?
A: > 100 µM (inactive)

Q: And the GI50 (SNB-75)?
A: > 100 µM (inactive)

Q: What about the GI50 (SR) of the same compound?
A: > 100 µM (inactive)

Q: What about the GI50 (SW-620) of the same compound?
A: > 100 µM (inactive)

Q: And the GI50 (T47D)?
A: > 100 µM (inactive)

Q: And the GI50 (TK-10)?
A: 20.3 µM (inactive)

Q: And the GI50 (U-251)?
A: > 100 µM (inactive)

Q: What about the GI50 (UACC-257) of the same compound?
A: > 100 µM (inactive)

Q: What about the GI50 (UACC-62) of the same compound?
A: > 100 µM (inactive)

Q: And the GI50 (UO-31)?
A: > 100 µM (inactive)
